{"source": "patent EP4257135A1", "about": "“BENZIMIDAZOLE DERIVATIVES FOR PULMONARY ARTERIAL HYPERTENSION” (Justus-Liebig-Universität Gießen, priority 2022, dated 2023)", "tested_on": "SuHx-PAH", "test": "SUGEN5416/chronic hypoxia PAH rat model, right heart catheterisation and histology", "assay_type": "in vivo, Ratten", "conditions": "SuHx-PAH rats, three times weekly for two weeks, intratracheal nebulisation 275 nmol/kg", "excerpt": "Um das therapeutische Potenzial der EP300/CREBBP-Hemmung in vivo weiter zu erforschen, haben die Erfinder Versuchstiere in drei verschiedenen Nagetiermodellen mit etablierter PAH mit der Substanz SGC-CBP30 behandelt, wobei SGC-CBP30 durch intra-tracheale Vernebelung über zwei Wochen lang dreimal wöchentlich verabreicht wurde. Es wurden folgende drei verschiedenen Nagetiermodelle für eine PAH (FHR-PAH, MCT-PAH und SuHx-PAH) getestet: • Fawn-hooded hypertensive Ratten (FHR): Das ist ein genetischer Rattenstamm, bei dem PAH im Alter spontan auftritt und der ähnliche PAH-Anomalien aufweist, wie sie bei IPAH bei Menschen nach 40 Wochen auftreten. • Durch Monocrotalin (MCT) induziertes PAH-Rattenmodell. • Ein SUGEN5416/chronische Hypoxie (SuHx)-Rattenmodell für PAH, bei dem die Ratten eine einmalige Injektion von SUGEN5416 erhielten und anschließend einer chronischen Hypoxie (10% O2) ausgesetzt wurden (SuHx-PAH).\nFür die MCT-PAH wurden männlichen und weiblichen SD-Ratten (Sprague-Dawley-Ratten) subkutan 60 mg/kg MCT (Sigma, Katalog: C2401) injiziert, um PAH zu induzieren. Bei der SuHx-PAH erhielten SD-Ratten eine einmalige subkutane Injektion von SUGEN5416 (20 mg/kg) und wurden drei Wochen lang einer normobaren Hypoxie ausgesetzt, bevor sie für zwei Wochen an die Raumluft zurückkehrten. Zwei Wochen nach der MCT-Injektion bzw. drei Wochen nach der SUGEN5416-Injektion (sobald PAH festgestellt wurde) wurden die Ratten nach dem Zufallsprinzip in vier Gruppen eingeteilt und erhielten zwei Wochen lang dreimal wöchentlich entweder Vehikel (Verabreichung von 1 % Methylcellulose in destilliertem Wasser oder intratracheale Vernebelung von 4 % DMSO in PBS als Negativkontrolle), SGC-CBP30 (Verabreichung von 10 mg/kg in 1 % Methylcellulose + destilliertem Wasser) oder SGC-CBP30 (intratracheale Vernebelung von 275 nmol/kg in 4 % DMSO + PBS). Einjährige männliche und weibliche FHR-Ratten mit etablierter PAH wurden in dieselben vier Gruppen wie beim MCT-Modell eingeteilt und den selben Behandlungsmethoden unterzogen. Für die Vernebelung wurden die Ratten mit 3%igem Isofluran betäubt. Ein 16-Gauge-Katheter wurde in die Luftröhre eingeführt. Ein Vernebler (Aerogen) wurde an den Katheter angeschlossen, und für jede Behandlung wurde ein Volumen von 50 µl SGC-CBP30 oder dessen Vehikel (als Negativkontrolle) verabreicht. Nach zweiwöchiger Behandlung wurde eine Rechtsherzkatheteruntersuchung bei geschlossenem Thorax durchgeführt, um folgende hämodynamischen Daten zu erfassen: Systolischer Rechtsventrikulärer Druck (RVSP), mittlerer PA-Druck (mPAP), Herzzeitvolumen (CO) und Schlagvolumen (SV). Der Gesamtwiderstand der Lunge (TPR) wurde durch Division von mPAP durch CO ermittelt. Nach der hämodynamischen Messung wurden den Ratten Gewebeproben entnommen. Die Experimente wurden gemäß den Richtlinien des Canadian Council on Animal Care durchgeführt. Alle Protokolle wurden von der institutionellen Ethikkommission für Tiere (Tierschutzausschuss der Universität Laval) geprüft und genehmigt (Protokollnummer 2019-018-2). Alle Experimente folgten den Richtlinien für die präklinische Forschung bei PAH.\nDer schwarze Balken zeigt 50 µm an. Die Daten sind als Mittelwert ± SD angegeben und die statistische Analyse wurde mit einem ungepaarten Student's t-Test durchgeführt. FHR, MCT und SU5416/chronische Hypoxie-Ratten: *P<0,05, **P<0,01 und ***P<0,001 gegenüber den mit Vehikel behandelten Gruppen. MCT-Rattenmodell: §P<0,05, §§P<0,01 und §§§P<0,001 gegenüber der unbehandelten Kontrollgruppe. • A: Schematische Darstellung des Versuchsaufbaus für die Behandlung von Fawn-hooded hypertensive Ratten (FHR) mit dem EP300/CREBBP-Inhibitor SGC-CBP30, der selektiv auf die Acetyltransferase EP300/CREBBP wirkt. […]", "key": {"[1]": {"conditions": "start three weeks after SUGEN5416"}}}
{"smiles": "COc1ccc(CCc2nc3cc(-c4c(C)noc4C)ccc3n2C[C@H](C)N2CCOCC2)cc1Cl", "note": "[SGC-CBP30, 2-[2-(3-Chloro-4-methoxyphenyl)ethyl]-5-(3,5-dimethyl-1,2-oxazol-4-yl)-1-[(S)-2-(morpholin-4-yl)propyl]-1H-benzimidazole]", "values": [{"measurement": "RVSP", "setting": "[1]", "result": "signifikanten Senkung"}, {"measurement": "mPAP", "setting": "[1]", "result": "signifikanten Senkung"}, {"measurement": "CO", "result": "verbesserte CO und SV auch bei SUGEN5416/chronischer Hypoxie-PAH signifikant"}, {"measurement": "SV", "result": "verbesserte CO und SV auch bei SUGEN5416/chronischer Hypoxie-PAH signifikant"}, {"measurement": "mediale Wanddicke der distalen PAs", "result": "signifikant verringert"}, {"measurement": "TPR", "setting": "mPAP divided by CO", "result": "signifikanten Senkung"}]}
